One compound from PMC4081081 (2014) can be followed below.

The assay deals with T25 (DNA, single strand, C6-amino dT at 8 of strand 2) TGGCGACGGCAGCGAGGCTTTTTTTTTTTTTTTTTTTTTTTTT/GCCTCGCTGCCGTCGCCA
In words: Cy3 fluorescence quenching. The note with it: 100 mM KCl; 10 mM Tris-HCl pH 7.5, room temperature, 50 nM DNA; negative control, nonspecific quenching taken as background.

As for `CCc1c(C)c2cc3nc(cc4nc(cc5c(CC)c(C)c(cc1[nH]2)n5C)C(C)=C4CCC(=O)O)C(CCC(=O)O)=C3C`, the binding result is given as “weak”.
